According to patent publication US20100278849A1, “PROSTATIC ACID PHOSPHATASE ANTIGENS” (priority 2004, published 2010):
“Also recorded” adds a separate entry of the source.

Columns and labels:
HLA-A2 = HLA-A2 (Homo sapiens, UniProt P04439, D140Y/D185E/D98H/E176V/E277Q/G131W/G231S/I119V/I121R/I166T/I218V/L300P/L318F/N151K/N90K/P208A/P217A/Q86G/Q94H/R138H/R169H/T345S); settings: earlier reports; cited from earlier work
HLA-A2*0201 = HLA-A2*0201 (Homo sapiens, UniProt P04439, D140Y/D185E/D98H/E176V/E277Q/G131W/G231S/I119V/I121R/I166T/I218V/L300P/L318F/N151K/N90K/P208A/P217A/Q86G/Q94H/R138H/R169H/T345S); format: cell-based

**Q.** Which “HLA-A2 binding previously described” value (HLA-A2) does the source give for ALDVYNGLL [PAP.299, reference compound] here?
**A.** strong HLA-A2 binding

**Q.** What about the “binding to HLA-A2 (T2 cells)” value (HLA-A2*0201) of the same sequence?
**A.** no significant binding; also recorded: unable to confirm the strong HLA-A2 binding
